Values of other authors as cited in patent publication US20020048798A1, “Novel antioxidants” (priority 2000, published 2002).

Conditions: factor relative to the racemate of α-lipoic acid

## O=C(O)CCCC[C@@H]1CCSS1 [R-α-lipoic acid]
  anti-inflammatory activity, stronger by a factor than that of the racemate: 10
